Several values for one entry are separate records, joined by “and”; a condition that tells them apart may be missing. Equal entries are not always repeated.
Legend:
[1] = target: T1, K-Ras G12V (Homo sapiens, UniProt P01116, G12V); experiment: FA-based competition assay with DCAI; type: binding
[2] = target: K-Ras; conditions: read-out: KD, DCAI binding to K-Ras; cited from earlier work
[3] = target: T1, K-Ras G12V; experiment: Fluorescence anisotropy; type: binding
[4] = system: H441 human lung cancer cells; experiment: MTT cell viability assay, H441; type: cell-based; conditions: 0-40 μM
[5] = system: H1299 lung cancer cell line; experiment: MTT cell viability assay, H1299; type: cell-based, human; conditions: H1299 (Q61K N-Ras), 24 h
[6] = system: H1299 cells; experiment: Cellular uptake by flow cytometry; type: cell-based, human
[7] = system: H1299 cells; experiment: Live-cell confocal microscopy of internalization; type: cell-based, human; conditions: H1299, 5 μM FITC-labeled peptide, 2 h
[8] = system: p-MEK; experiment: Immunoblot of MEK phosphorylation in H1299 cells; type: cell-based, human; conditions: H1299, 0-18 μM for 12 h, EGF 50 ng/mL 10 min
[9] = system: p-Akt at Thr308; experiment: Immunoblot of Akt phosphorylation in H1299 cells; type: cell-based, human; conditions: H1299, 0-18 μM for 12 h, EGF 50 ng/mL 10 min

Row | Compound | IC50 [1] [µM] | Kd [2] | lower affinity than peptide 49 ([3]; K-Ras G12V, peptide lacking the DCAI moiety) [fold] | Kd ([3]; read-out: KDapp, FA, FITC-labeled peptide 100 nM, K-Ras G12V as purified from E. coli, mixture of GTP- and GDP-bound forms) [µM] | reduction in cell viability [4] | LD50 [5] [µM] | cell entry efficiency, fold lower than cFΦR4 ([6]; H1299, 5 μM FITC-labeled peptide, 2 h) [fold] | cell permeability ([6]; tested for cellular uptake) | internalization / intracellular distribution [7] | reduction of EGF-induced p-MEK level [8] | reduction of EGF-induced p-Akt level [9]
1 | Cc1[nH]c2cc(Cl)cc(Cl)c2c1CCN [DCAI, 4,6-dichloro-2-methyl-3-aminoethylindole] | 840 ± 220 | 1.1 mM and ~1.1 mM | – | – | – | – | – | – | – | – | –
2 | bicyclo [Tm-Ala-leu-Phe-Arg-asn-Pra-Ile-Asp-Lys-Phe-Nal-Arg-Arg-Arg-Arg-Dap]-Lys [peptide 54] | – | – | ~80 | 17 ± 11 | significant reduction in cell viability only at the highest inhibitor concentration tested | > 40 | ~3 | readily cell permeable | largely similar intracellular distribution | no effect | no effect

Source: PMC4710893 (ACS Combinatorial Science, 2015)
